The text below walks through data of patent US20230048366A1, “COMBINATION THERAPY FOR TREATING OR PREVENTING CANCER” (4D Pharma Research Limited, priority 2018, published 2023).

In assay [1] the test system is immature dendritic cells. Kind of assay: Cytokine production in immature dendritic cells. The class given is cell-based. Particulars: MRX518 10^7/ml, LPS 100 ng/ml. As for the experimental part: This study tested the effect of the bacterial strain MRX518 alone and in combination with lipopolysaccharide (LPS) on cytokine production in immature dendritic cells.
A monocyte population was isolated from peripheral blood mononuclear cells (PBMCs). The monocyte cells were subsequently differentiated into immature dendritic cells. The immature dendritic cells were plated out at 200,000 cells/well and incubated with MRX518 at a final concentration of 10^7/ml, with the optional addition of LPS at a final concentration of 100 ng/ml. The negative control involved incubating the cells with RPMI media alone and positive controls incubated the cells with LPS at a final concentration of 100 ng/ml. The cytokine content of the cells was then analysed.

Assay [2] has as its system RENCA tumour cells. In words: Antitumor activity, RENCA model (tumour volume). The class given is in vivo, mouse. Particulars: D18 and D22, compared to untreated and vehicle groups, FIG. 3B. As for the experimental part:
Treatment schedule—The start of first dosing was considered as D0. On D0, non-engrafted mice were randomized according to their individual body weight into groups of 9 mice using Vivo Manager® software (Biosystemes, Couternon, France). On D0, the mice received vehicle (culture medium) or bacterial strain (2×10^8 in 200 μL, PO). On D14, all mice were engrafted with RENCA tumour cells injected SC into the ventral surface of the lower flank as described below. Treatment with anti-CTLA-4 (10 mg/kg, IP) and anti-PDL1 (clone 10F.9G2, 10 mg/kg) was initiated when tumours reached a volume of 50-70 mm3.
Orthotopic induction of RENCA tumor cells in animals by SC injection—On D14, one million (1×10^6) RENCA tumor cells in 50 μL RPMI 1640 medium were transplanted via SC injection into the ventral surface of the lower flank of mice.
Euthanasia—Each mouse was euthanized when it reached a humane endpoint as described in section below, or after a maximum of 6 weeks post start of dosing.
Evaluation of tumour burden at euthanasia—At the time of termination, tumours were collected and their volume evaluated.
Clinical monitoring—The length and width of the tumour was measured twice a week with callipers and the volume of the tumour was estimated by this formula [52]: […]

Where [3] appears, read: compared to the negative control, FIGS. 4a-d.

On to lipopolysaccharide [LPS], for which, in assay [1] (FIGS. 4b, 4d), the “level of IL-1β” value is given as “not IL-1β”. Further, in assay [1] (setting [3]), the “level of IL-6” value is given as “increase” and the “level of TNF-α” value is reported as “increase”.

As for `CC(=O)O[C@H]1C(=O)[C@@]2(C)[C@H]([C@H](OC(=O)c3ccccc3)[C@]3(O)C[C@H](OC(=O)[C@H](O)[C@@H](NC(=O)c4ccccc4)c4ccccc4)C(C)=C1C3(C)C)[C@]1(OC(C)=O)CO[C@@H]1C[C@@H]2O` [Paclitaxel], in assay [2], the tumour size result is listed as “(almost) complete reduction in tumour size”.
